Measured values from patent publication US10562869B2, “Oxadiazole compounds” (REMYND NV, priority 2014, dated 2020).

The compounds below were run on M17_3TAU(P301L) cells (assay: Retinoic acid-induced cytotoxicity (LDH) in TAU-P301L expressing M17_3TAU(P301L) neuroblastoma cells). Conditions: Homo sapiens, Neuroblastoma cell, 168 h; toxicity inhibition (LDH) in M17_3TAU(P301L) cells challenged with retinoic acid, 7 days.
Format: cell-based
Text: A TAU expression plasmid was constructed by sub-cloning the cDNA encoding for human TAU-P301L protein, wherein proline at position 301 was substituted by a leucine residue, into mammalian expression vector pcDNA3.1 resulting in the plasmid pcDNA3.1-TAUP301L. Plasmid pcDNA3.1-TAU P301L was transfected into human neuroblastoma cells (BE-M17; ATCC No. CRL-2267™) using lipofectamine reagent and subsequently, independent clonal cell lines with the plasmids stably integrated into the genome were selected by antibiotic resistance selection (Geneticin (G418)), resulting in cell line M17_3TAUP301L. Expression of the TAUP301L gene in the M17_3TAUP301L cells was confirmed by Western blot analysis.
M17_3TAU(P301L) cells were treated chronically with retinoic acid (RA) in low serum conditions to induce Alzheimer's disease-like intracellular signaling deregulation leading to increased TAU levels and subsequent cell death. Cytotoxicity of cells was measured by quantification of lactate dehydrogenase (LDH) levels. In dead cells LDH leaked out of the cells into the medium due to a loss of plasma-membrane integrity.
3 days preceding the experiment, a pre-culture of M17_3TAU(P301L) cells was prepared, starting from a stock culture, at a density of 50.000-100.000 cells/cm^2 in culture medium (Optimem Reduced Serum with phenol red (Invitrogen, Cat. 31985-047)) supplemented with 10% fetal calf serum (FCS), 1 mM sodium pyruvate, 1×non-essential amino acids (NEAA), 500 μg/ml G418 and 0.5×(ABAM). At the day of the experiment these precultures were diluted to ˜0.1·10^6 cells/ml in detection medium (Optimem Reduced Serum without phenol red (Gibco, Cat.11058-021) supplemented with 1% fetal calf serum (FCS), 1 mM sodium pyruvate, 1×non-essential amino acids (NEAA), 500 μg/ml G418 and 0.5×ABAM) and 60 μL of this suspension was dispensed per well into a 96-well microtiter plate. After 3 hours of incubation at 37° C./5% CO2 an equal volume of detection medium (without FCS) containing 3.75 μM RA was added and subsequently incubated for 7 days at 37° C./5% CO2. Then LDH activity was determined using the Promega Cytotox 96 Non-Radioactive cytotoxicity assay (Cat. G1780), according to the manufacturer's instructions. Cytotoxicity was defined as the ratio of LDH relative the total LDH in the cells and supernatant.
The assay described above using the M17_3TAU(P301L) cell line allowed to screen compounds for their ability to decrease cytotoxicity in RA-challenged cells. Compounds of the invention were tested for their ability to decrease toxicity at different concentrations, ranging from low non-effective concentrations to high potent concentrations. Afterwards, the dose-dependent inhibition curve was used to calculate their EC50. A compound was considered to be active in this test when it inhibited toxicity by more than 20% relative to untreated M17_3TAU(P301L) cells at a concentration of 10 μM or lower.

Compared with `Clc1ccccc1CN1CCN(c2nc(-c3ccccc3)no2)CC1` [Cmpd001, 5-(4-(2-Chlorobenzyl)piperazin-1-yl)-3-phenyl-1,2,4-oxadiazole], `Clc1cccc(-c2noc(N3CCN(Cc4ccccc4Cl)CC3)n2)c1` [Cmpd027, 5-(4-(2-Chlorobenzyl)piperazin-1-yl)-3-(3-chlorophenyl)-1,2,4-oxadiazole] is 2.7-fold higher in EC50: 27 nM for the first, 74 nM for the second. The first is the more potent here.

First: Cc1ccc(CN2CCN(c3nc(-c4ccccc4)no3)CC2)cc1 [Cmpd002, 5-(4-(4-Methylbenzyl)piperazin-1-yl)-3-phenyl-1,2,4-oxadiazole]
Second: Cc1ccc(CN2CCN(c3nc(-c4cccc(F)c4)no3)CC2)cc1 [Cmpd030, 3-(3-Fluorophenyl)-5-(4-(4-methylbenzyl)piperazin-1-yl)-1,2,4-oxadiazole]
The EC50 of the first is 1.6-fold lower: 8 nM for the first, 13 nM for the second. The first is the more potent here.

`Clc1ccc(CCN2CCN(c3nc(-c4ccccc4)no3)CC2)cc1` [Cmpd003, 5-(4-(4-Chlorophenethyl)piperazin-1-yl)-3-phenyl-1,2,4-oxadiazole] and `Clc1ccc(-c2noc(N3CCN(CCc4ccccc4)CC3)n2)cc1` [Cmpd020, 3-(4-Chlorophenyl)-5-(4-phenethylpiperazin-1-yl)-1,2,4-oxadiazole] are within 1.5-fold of each other in EC50: 12 nM for the first, 10 nM for the second.

First: COc1cc(CCN2CCN(c3nc(-c4ccccc4)no3)CC2)ccn1 [Cmpd004, 5-(4-(2-(2-Methoxypyridin-4-yl)ethyl)piperazin-1-yl)-3-phenyl-1,2,4-oxadiazole]
Second: COc1cc(CCN2CCN(c3nc(-c4cccc(Cl)c4)no3)CC2)ccn1 [Cmpd025, 3-(3-Chlorophenyl)-5-(4-(2-(2-methoxypyridin-4-yl)ethyl)piperazin-1-yl)-1,2,4-oxadiazole]
The EC50 of the first is 2.6-fold higher: 36 nM for the first, 14 nM for the second. The second is the more potent here.

First: c1ccc(-c2noc(N3CCN(CCN4CCOCC4)CC3)n2)cc1 [Cmpd005, 4-(2-(4-(3-Pphenyl-1,2,4-oxadiazol-5-yl)piperazin-1-yl)ethyl)morpholine]
Second: CC(C)CCN1CCN(c2nc(-c3ccccc3)no2)CC1 [Cmpd006, 5-(4-Isopentylpiperazin-1-yl)-3-phenyl-1,2,4-oxadiazole]
The EC50 of the first is 5.1-fold higher: 41 nM for the first, 8 nM for the second. The second is the more potent here.

Going from `Cc1ccc(-c2noc(N3CCN(Cc4ccc5c(c4)OCO5)CC3)n2)cc1` [Cmpd007, 5-(4-(Benzo[d][1,3]dioxol-5-ylmethyl)piperazin-1-yl)-3-(p-tolyl)-1,2,4-oxadiazole] to `Cc1ccc(-c2noc(N3CCN(Cc4ccc(Cl)cc4)CC3)n2)cc1` [Cmpd008, 5-(4-(4-Chlorobenzyl)piperazin-1-yl)-3-(p-tolyl)-1,2,4-oxadiazole], the EC50 falls from 352 nM to 182 nM (1.9-fold).

Compared with `COc1cccc(CCN2CCN(c3nc(-c4ccc(C)cc4)no3)CC2)c1` [Cmpd009, 5-(4-(3-Methoxyphenethyl)piperazin-1-yl)-3-(p-tolyl)-1,2,4-oxadiazole], `COc1cccc(CCN2CCN(c3nc(-c4ccc(Cl)cc4)no3)CC2)c1` [Cmpd021, 3-(4-Chlorophenyl)-5-(4-(3-methoxyphenethyl)piperazin-1-yl)-1,2,4-oxadiazole] is 7.8-fold lower in EC50: 39 nM for the first, 5 nM for the second.

First: Cc1ccc(-c2noc(N3CCN(Cc4ccccc4C)CC3)n2)cc1 [Cmpd010, 5-(4-(2-Methylbenzyl)piperazin-1-yl)-3-(p-tolyl)-1,2,4-oxadiazole]
Second: Cc1ccccc1CN1CCN(c2nc(-c3ccc(Cl)cc3)no2)CC1 [Cmpd022, 3-(4-Chlorophenyl)-5-(4-(2-methylbenzyl)piperazin-1-yl)-1,2,4-oxadiazole]
The EC50 of the first is 8.7-fold higher: 306 nM for the first, 35 nM for the second.

`Clc1ccc(CCN2CCN(c3nc(-c4ccc(Cl)cc4)no3)CC2)cc1` [Cmpd019, 5-(4-(4-Chlorophenethyl)piperazin-1-yl)-3-(4-chlorophenyl)-1,2,4-oxadiazole] and `Clc1ccc(CCN2CCN(c3nc(-c4cccc(Cl)c4)no3)CC2)cc1` [Cmpd024, 5-(4-(4-Chlorophenethyl)piperazin-1-yl)-3-(3-chlorophenyl)-1,2,4-oxadiazole] are within 1.5-fold of each other in EC50: 112 nM for the first, 119 nM for the second.

First: COc1cc(CCN2CCN(c3nc(-c4ccc(Cl)cc4)no3)CC2)ccn1 [Cmpd023, 3-(4-Chlorophenyl)-5-(4-(2-(2-methoxypyridin-4-yl)ethyl)piperazin-1-yl)-1,2,4-oxadiazole]
Second: COc1cc(CCN2CCN(c3nc(-c4cccc(F)c4)no3)CC2)ccn1 [Cmpd032, 3-(3-Fluorophenyl)-5-(4-(2-(2-methoxypyridin-4-yl)ethyl)piperazin-1-yl)-1,2,4-oxadiazole]
The EC50 of the first is 2.2-fold higher: 18 nM for the first, 8 nM for the second.

First: Cc1ccccc1CN1CCN(c2nc(-c3cccc(Cl)c3)no2)CC1 [Cmpd026, 3-(3-Chlorophenyl)-5-(4-(2-methylbenzyl)piperazin-1-yl)-1,2,4-oxadiazole]
Second: N#Cc1ccccc1CN1CCN(c2nc(-c3cccc(Cl)c3)no2)CC1 [Cmpd028, 2-((4-(3-(3-Chlorophenyl)-1,2,4-oxadiazol-5-yl)piperazin-1-yl)methyl)benzonitrile]
The EC50 of the first is 1.8-fold higher: 88 nM for the first, 48 nM for the second. The second is the more potent here.

Compared with `Fc1cccc(-c2noc(N3CCN(Cc4ccccc4Cl)CC3)n2)c1` [Cmpd029, 5-(4-(2-Chlorobenzyl)piperazin-1-yl)-3-(3-fluorophenyl)-1,2,4-oxadiazole], `Fc1ccc(-c2noc(N3CCN(Cc4ccccc4Cl)CC3)n2)cc1F` [Cmpd035, 5-(4-(2-Chlorobenzyl)piperazin-1-yl)-3-(3,4-difluorophenyl)-1,2,4-oxadiazole] is 4-fold lower in EC50: 97 nM for the first, 24 nM for the second. The second is the more potent here.

`Fc1cccc(-c2noc(N3CCN(CCc4ccc(Cl)cc4)CC3)n2)c1` [Cmpd031, 5-(4-(4-Chlorophenethyl)piperazin-1-yl)-3-(3-fluorophenyl)-1,2,4-oxadiazole] and `Fc1ccc(-c2noc(N3CCN(CCc4ccc(Cl)cc4)CC3)n2)cc1F` [Cmpd036, 1-[2-(4-Chloro-phenyl)-ethyl]-4-[3-(3,4-difluoro-phenyl)-[1,2,4]oxadiazol-5-yl]-piperazine] are within 1.5-fold of each other in EC50: 31 nM for the first, 22 nM for the second.

First: CC(C)CCN1CCN(c2nc(-c3cccc(F)c3)no2)CC1 [Cmpd034, 3-(3-Fluorophenyl)-5-(4-isopentylpiperazin-1-yl)-1,2,4-oxadiazole]
Second: CCC(c1ccccc1)c1noc(N2CCN(CCc3cccc(OC)c3)CC2)n1 (stereo not drawn) [Cmpd049, 5-(4-(3-Methoxyphenethyl)piperazin-1-yl)-3-(1-phenylpropyl)-1,2,4-oxadiazole]
The EC50 of the first is 5-fold lower: 2 nM for the first, 10 nM for the second. The first is the more potent here.

Going from `c1ccc(Cc2noc(N3CCN(Cc4ccc5c(c4)OCO5)CC3)n2)cc1` [Cmpd040, 1-Benzo[1,3]dioxol-5-ylmethyl-4-(3-benzyl-[1,2,4]oxadiazol-5-yl)-piperazine] to `Clc1ccc(Cc2noc(N3CCN(Cc4ccc5c(c4)OCO5)CC3)n2)cc1` [Cmpd055, 1-Benzo[1,3]dioxol-5-ylmethyl-4-[3-(4-chloro-benzyl)-[1,2,4]oxadiazol-5-yl]-piperazine], the EC50 rises from 64 nM to 452 nM (7.1-fold).

Compared with `Cc1ccccc1CN1CCN(c2nc(Cc3ccccc3)no2)CC1` [Cmpd041, 1-(3-Benzyl-[1,2,4]oxadiazol-5-yl)-4-(2-methylbenzyl)-piperazine], `COc1cccc(CCN2CCN(c3nc(Cc4ccccc4)no3)CC2)c1` [Cmpd042, 1-(3-Benzyl-[1,2,4]oxadiazol-5-yl)-4-[2-(3-methoxy-phenyl)-ethyl]-piperazine] is 18-fold lower in EC50: 55 nM for the first, 3 nM for the second. The second is the more potent here.

Work on `CCC(c1ccccc1)c1noc(N2CCN(Cc3ccc4c(c3)OCO4)CC2)n1` (stereo not drawn) [Cmpd047, 5-(4-(Benzo[d][1,3]dioxol-5-ylmethyl)piperazin-1-yl)-3-(1-phenylpropyl)-1,2,4-oxadiazole] yielded an EC50 of 63 nM.
